Results on four molecules are retold here after US6177592A, “Compounds” (priority 1997, dated 2001).

The test system of one assay is mouse leukemia P-388. Briefly: Mouse leukemia P-388 survival (macrobiotic effect) in DBA/2 mice. The assay is classed as in vivo. The settings on record: 10 mg/kg/day i.p., five days. How it is done: GM was diluted with a physiological saline solution to a predetermined concentration and subjected to the following tests.
(2) Mouse leukemia P-388 (1.1×10^6 cells/mouse) was intraperitoneally injected to female DBA/2 mice (body weight: about 20 g) of seven weeks age. After that, GM, CM, GD or CD (10 mg/kg/day) was intraperitoneally injected for consecutive five clays. In the meanwhile, a physiological saline solution was intraperitoneally injected to the control group by the same manner. In the two group each consisting of eight mice, survived numbers, average survived days and macrobiotic rate of the mice were calculated.

A further assay deals with EAC. Briefly: EAC/DDY mice macrobiotic effect. The assay is classed as in vivo.
The subject of the next assay is Sarcoma-180. Description: Sarcoma-180/ICR mice macrobiotic effect. Type of assay: in vivo.
The subject of a further assay is IMC. Briefly: IMC/CDF1 mice macrobiotic effect. The assay is classed as in vivo.
In assay [1] the test system is HL-60 cells. Briefly: MTT growth inhibition of HL-60. The assay is classed as cell-based, human. The settings on record: for inhibition activity of the growth of cancer cells (in words): Example 5; for activity at 10 µM / activity at 20 µM / activity at 40 µM: read-out: degree of cell growth (ratio of absorbance at 590 nm of sample-added section to control). The protocol:
(§1) (2) To each of the wells of a 96-well microtiter plate was added 8, 40, 200 or 1000 μM aqueous solution of GM or 10 μl of water as a control. HL-60 (ATCC CCL-240) was suspended in an RPMI 1640 medium containing 10% of fetal calf serum to make the concentration 5×10^4 cells/ml and each 90 μl thereof was placed in each well of the above-mentioned microtiter plate and incubated at 37° C. for 48 hours in the presence of 5% carbon dioxide. Incubation was conducted for four hours more after addition of 10 μl of a solution (5 mg/ml) of 3-(4,5-dimethylthiazol-2-yl)-2,5-diphenyltetrzolium bromide (MTT; manufactured by Sigma) in a phosphate-buffered saline solution and the state of growth of the cells was observed under a microscope. Further, 100 μl of 2-propanol containing 0.04N hydrochloric acid was added followed by stirring and an absorbance at 590 nm was measured.
(3) To each well of the 96-well microtiter plate was added 100, 200 or 400 μM aqueous solution of GM or CM or 10 μl of water as a control and the inhibition activity of growth of HL-60 was measured by the same method as mentioned in Example 5-(2). The degree of cell growth was, however, expressed in terms of the ratio (%) of the absorbance at 590 nm of the sample-added section to that of the water-added section (the control).
(§2) (5) To each well of the 96-well microtiter plate was added 4.12, 12.3, 37.0, 111, 333 or 1000 μM aqueous solution of GD or 10 μl of water as a control. HL-60 (ATCC CCL-240) was suspended in an RPMI 1640 medium containing 10% of fetal calf serum to make the concentration 5×10^4 cells/ml and each 90 μl thereof was placed in each well of the above-mentioned microtiter plate followed by incubating at 37° C. for 48 hours in the presence of 5% carbon dioxide gas. The incubation was conducted for four hours more after addition of 10 μl of 5 mg/ml solution of 3-(4,5-dimethylthiazol-2-yl)-2,5-diphenyltetrazolium bromide (MTT; manufactured by Sigma) in a phosphate-buffered saline solution and the state of growth of the cells was observed under a microscope. In the meanwhile, 100 μl of 2-propanol containing 0.04N HCl was added followed by well stirring and the absorbance at 590 nm was measured.
(6) Cyclopentenone and L-cysteine hydrochloride were dissolved in a phosphate buffered saline solution (pH 7.2) to make their concentrations 55 mM and 80 mM, respectively and made to react at 37° C. for 15 minutes at pH 7.2. Apart of the reaction solution was analyzed by a reversed phase HPLC using a column of TSK gel ODS-80Ts (4.6 mm×250 mm; manufactured by Tosoh)at the flow rate of 1 ml/minute using 0.1% aqueous solution of trifluoroacetic acid as a mobile phase whereupon no cyclopentenone was detected. This reaction solution was a solution containing 55 mM of CD.
Degree of cell growth was, however, expressed in terms of the ratio (%) of the absorbance at 590 nm of the section to which the sample was added to that of the control where water was added.

For assay [2], the system named is HL-60 cells. Briefly: Apoptosis in HL-60 cells (apoptic bodies, DNA fragmentation). The assay is classed as cell-based, human. The settings on record: at each of the cell-growth-inhibiting concentrations. How it is done:
(1) Each 0.5 ml of 0.2 mM CM, 0.8 mM CM or 1.6 mM CM was added to 4.5 ml of RPMI 1640 medium containing 10% of fetal calf serum and 2.5×10^5HL-60 cells (promyelocytic leukemia cell) (ATCC CCL-240) and incubated at 37° C. for 24 hours or 48 hours in the presence of 5% carbon dioxide gas and the numbers of viable cells were measured.
as §1
(4) HL-60 cells (ATCC CCL240) which were incubated at 37° C. in an RPMI 1640 medium (manufactured by Nissui) containing 10% of fetal calf serum (manufactured by Gibco) treated at 56° C. for 30 minutes were suspended in the above medium to make the concentration 2.5×10^5cells/4.5 ml. To this suspension was added 0.5 ml of 100 μM aqueous solution of GM (final concentration: 10 μM) followed by incubating at 37° C. in the presence of 5% carbon dioxide gas for 24 hours, 48 hours and 72 hours.
as §2

For assay [3], the system named is Bacillus subtilis IFO 3021. Description: Antibacterial activity, viable cell numbers. The settings on record: compared with GM. The assay is classed as cell-based. How it is done: Bacillus subtilis IFO 3021 was incubated (by mans of a seed culture) overnight in a sensitive bouillon medium (manufactured by Nissui). Absorbance at 600 nm was measured and viable cell numbers were calculated from the previously-prepared calibration curve showing the relation between the viable cell numbers and absorbance at 600 nm. The seed-cultured liquid was diluted with a fresh sensitive bouillon medium to make the concentration 1×10^6 cells/ml and each 180 μl thereof was placed in each well of the 96-well microtiter plate. Each 20 μl of aqueous solution of GM (4 mg/ml or 2 mg/ml) or water was added to each well followed by allowing to a stationary culture at 37° C. for one night (main incubation) In the meanwhile, a part of the seed culture liquid was diluted with sterilized water, spread onto a sensitive bouillon agar plate medium and incubated at 37° C. for one night and the colonies were counted to measure the precise viable cell numbers.
The cultured liquid in each of the wells was diluted with sterilized water, spread onto a sensitive bouillon agar plate medium and incubated at 37° C. for one night and the colonies were counter to measure the viable cell numbers.

Another assay relates to HSP70 and HSP90. The settings on record: Amici et al., J. Virology 68, 6890 (1994); cited from earlier work.
Assay [4] has as its system Sendai virus protein synthesis. The conditions noted are these: Amici et al., J. Virology 68, 6890 (1994); cited from earlier work.
The subject of a further assay is HSP70. The settings on record: cited from earlier work.
Assay [5] deals with vesicular stomatitis virus protein. The conditions noted are these: Rossi et al., J. Biol. Chem. 271, 32192 (1996); cited from earlier work.

Entries after “also recorded” stand apart in the source; their conditions may differ.

As to `N[C@@H](CSC1CC(=O)C(O)C1O)C(=O)O` (some centres unmarked) [CD], the “macrobiotic effect (average survived days)” value in the assay with mouse leukemia P-388 is listed as “significant macrobiotic effect”. Also, the macrobiotic effect result in the assay with EAC is recorded as “same macrobiotic effect”. Moreover, the macrobiotic effect result with Sarcoma-180 is given as “same macrobiotic effect”. Besides, the macrobiotic effect result in the assay on IMC is reported as “same macrobiotic effect”. Further, the “inhibition activity of the growth of cancer cells (in words)” value with HL-60 cells [1] is “inhibition activity of the growth of cancer cells”. In the assay with HL-60 cells [1] (Homo sapiens, HL-60, 48 hours), the activity at 10 µM turned out to be 89%, the activity at 20 µM was 56.2% and the activity at 40 µM is 5.3%. For the same molecule, in the assay on HL-60 cells [2], the “apoptic bodies in the cells” value is on record as “Apoptic bodies were produced in the cells”. The “antibacterial activity (in words)” value in assay [3] is “same results”.
For `CCCCC[C@H](O)/C=C/[C@H]1C=CC(=O)[C@@H]1CCCCCCC(=O)O` [prostaglandin Al], the “synthesis of HSP70 and HSP90” value in the assay on HSP70 and HSP90 is “synthesis of HSP70 and HS?90 is induced”. For the same molecule, in assay [4], the “synthesis of virus protein” value was “synthesis of virus protein is inhibited”.
Consider `N[C@@H](CCC(=O)N[C@@H](CSC1CC(=O)C(O)C1O)C(=O)NCC(=O)O)C(=O)O` (some centres unmarked) [GD, 2,3-dihydroxy-4-glutathion-S-yl-cyclopentanone], for which, in the assay with mouse leukemia P-388, the “macrobiotic effect (average survived days)” value is “significant macrobiotic effect”. In addition, the macrobiotic effect entry with EAC, in the assay with Sarcoma-180 and in the assay on IMC was “same macrobiotic effect” each time. The “inhibition activity of the growth of cancer cells (in words)” value in the assay on HL-60 cells [1] was “inhibition activity of the growth of cancer cells”. Moreover, the activity at 10 µM in the assay on HL-60 cells [1] (Homo sapiens, HL-60, 48 hours) was 47.2%. Moreover, the activity at 20 µM with HL-60 cells [1] (Homo sapiens, HL-60, 48 hours) is 5.8%. Moreover, the activity at 40 µM in the assay on HL-60 cells [1] (Homo sapiens, HL-60, 48 hours) amounted to 2.1%. Besides, the IC100 in the assay on HL-60 cells [1] (Homo sapiens, HL-60, 48 hours, MTT, final concentration, read-out: concentration at which growth of HL-60 cells was completely inhibited) was determined as 3.7 µM. Moreover, the “apoptic bodies in the cells” value with HL-60 cells [2] was “apoptic bodies were detected; also recorded: Apoptic bodies were produced in the cells”. Also, in assay [3], the “antibacterial activity (in words)” value is listed as “same results”.
Consider `O=C1C=CCC1` [2-cyclopenten-1-one], for which the “synthesis of HSP70” value with HSP70 (Rossi et al., J. Biol. Chem. 271, 32192 (1996)) was “induces the synthesis of HSP70”. The “concentration required for inducing the HSP70” value with HSP70 is on record as “several hundred”. The “synthesis of vesicular stomatitis virus protein” value in [5] is “inhibits the synthesis of vesicular stomatitis virus protein”.
